From patent US20040058898A1, “Pharmaceutical composition for alleviating the violence of a mammal comprising nortestosterone derivatives” (priority 2002, published 2004)

System: male ostriches which violently behaved, cried and did not take feed
Experiment: Alleviation of the violence and stimulation of the appetite in male ostrich
Type: in vivo
Conditions: male ostrich; for Alleviation of the violence and stimulation of the appetite: results compared with 17β-decanoate-4-estren-3-one: same procedures as Experimental Example 1 (100 kg, intramuscular, 100 mg), Example 1 result: alleviated violence and stimulated appetite; for Alleviation of the violence and stimulation of the appetite according to administered amount: results compared with 17β-decanoate-4-estren-3-one: same procedures as Experimental Example 2 (100 kg, intramuscular, 10 to 1000 mg), Example 2 result: alleviated violence and stimulated appetite at every amount
Source text: After administration, their behaviors and appetites were observed.

Compound | Alleviation of the violence and stimulation of the appetite: results compared with 17β-decanoate-4-estren-3-one | Alleviation of the violence and stimulation of the appetite according to administered amount: results compared with 17β-decanoate-4-estren-3-one
C[C@]12CC[C@H]3[C@@H](CCC4=CC(=O)CC[C@@H]43)[C@@H]1CC[C@@H]2OC(=O)c1ccccc1 [17β-benzoate-4-estren-3-one] | the same with the result of the experiment using 17β-decanoate-4-estren-3-one in Experimental Example 1 | the same with the result of the experiment using 17β-decanoate-4-estren-3-one in Experimental Example 2
C[C@]12CC[C@H]3[C@@H](CCC4=CC(=O)CC[C@@H]43)[C@@H]1CC[C@@H]2OC(=O)C1CCCCC1 [17β-cyclohexanecarboxylate-4-estren-3-one] | the same with the result of the experiment using 17β-decanoate-4-estren-3-one in Experimental Example 1 | the same with the result of the experiment using 17β-decanoate-4-estren-3-one in Experimental Example 2
C[C@]12CC[C@H]3[C@@H](CCC4=CC(=O)CC[C@@H]43)[C@@H]1CC[C@@H]2OC(=O)CCC1CCCCC1 [17β-cyclohexylpropinoate-4-estren-3-one] | the same with the result of the experiment using 17β-decanoate-4-estren-3-one in Experimental Example 1 | 
CCCCCCCCCCCC(=O)O[C@H]1CC[C@H]2[C@@H]3CCC4=CC(=O)CC[C@@H]4[C@H]3CC[C@]12C [17β-dodecanoate-4-estren-3-one] | the same with the result of the experiment using 17β-decanoate-4-estren-3-one in Experimental Example 1 | the same with the result of the experiment using 17β-decanoate-4-estren-3-one in Experimental Example 2
CCCCCCOc1ccc(CCC(=O)O[C@H]2CC[C@H]3[C@@H]4CCC5=CC(=O)CC[C@@H]5[C@H]4CC[C@]23C)cc1 [17β-p-hexyloxyphenylpropionate-4-estren-3-one] | the same with the result of the experiment using 17β-decanoate-4-estren-3-one in Experimental Example 1 | the same with the result of the experiment using 17β-decanoate-4-estren-3-one in Experimental Example 2
C[C@]12CC[C@H]3[C@@H](CCC4=CC(=O)CC[C@@H]43)[C@@H]1CC[C@@H]2OC(=O)CCc1ccccc1 [17β-phenpropionate-4-estren-3-one] | the same with the result of the experiment using 17β-decanoate-4-estren-3-one in Experimental Example 1 | the same with the result of the experiment using 17β-decanoate-4-estren-3-one in Experimental Example 2
CCC(=O)O[C@H]1CC[C@H]2[C@@H]3CCC4=CC(=O)CC[C@@H]4[C@H]3CC[C@]12C [17β-propionate-4-estren-3-one] | the same with the result of the experiment using 17β-decanoate-4-estren-3-one in Experimental Example 1 | the same with the result of the experiment using 17β-decanoate-4-estren-3-one in Experimental Example 2
